According to patent US20190175744A1, “INSULIN-INCRETIN CONJUGATES” (Merck Sharp & Dohme Corp., priority 2016, published 2019):
pEC50: −log10 of the molar value. Read-outs that look alike come from different tables or passages of the source.

Key:
human GCGR = biological target: T1, human GCGR (Homo sapiens, UniProt P47871); assay: cAMP activity assay, cells expressing human GCGR; assay type: cell-based; settings: for GCGR/GLP1R ratio: Table 5, ratio of hGCGR EC50 to hGLP1R EC50;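 for all read-outs here: cAMP production read by luminescence after one hour of peptide exposure at room temperature, EC50 from logistic curve fit, native glucagon and GLP-1 as control peptides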
T1 construct: expressed in transfected cells; grown with Blasticidin and Hygromycin
Procedure: Activity of the incretin peptides or the conjugates at the Glucagon receptor (GCGR) and GLP-1 receptor (GLP1R) may be measured in a cAMP activity assay as follows.
Peptides are dissolved in 100% DMSO and serially diluted to generate 10 point titrations. The peptide solutions are then transferred into 384-well assay plates (150 nL/well). Assay ready frozen cells expressing human GLP1R or human GCGR are suspended in growth media consisting of DMEM medium (GIBCO), 10% FBS (GIBCO), 1×NEAA(GIBCO), 1×P/S (GIBCO), 10 μg/mL Blasticidin (GIBCO) and 200 μg/mL Hygromycin (GIBCO). […] The cell suspensions (15 μL) are then added to the assay plates containing the peptide solutions (30,000 cells/well for human GCGR; 10,000 cells/well for human GLP1R). The cells are incubated for one hour at room temperature in the dark.
Production of cAMP may be determined using HitHunterr cAMPXS kits (DiscoverX) following the manufacturer's protocol. The plates are incubated for overnight at room temperature in the dark. Luminescence may be measured using an EnVision Multilabel plate reader (Perkin Elmer). Native GLP-1 and Glucagon (Bachem) may be used as control peptides. EC50 values may be calculated using uses a 4 parameter logistic fit based on the Levenberg-Marquardt algorithm.

human GLP1R = human GLP1R (Homo sapiens, UniProt P43220); assay: cAMP activity assay, cells expressing human GLP1R; assay type: cell-based
[1] = Table 5, incretin peptides, cAMP, read-out: hGLP1R EC50

T1 sequence (P47871 26-477): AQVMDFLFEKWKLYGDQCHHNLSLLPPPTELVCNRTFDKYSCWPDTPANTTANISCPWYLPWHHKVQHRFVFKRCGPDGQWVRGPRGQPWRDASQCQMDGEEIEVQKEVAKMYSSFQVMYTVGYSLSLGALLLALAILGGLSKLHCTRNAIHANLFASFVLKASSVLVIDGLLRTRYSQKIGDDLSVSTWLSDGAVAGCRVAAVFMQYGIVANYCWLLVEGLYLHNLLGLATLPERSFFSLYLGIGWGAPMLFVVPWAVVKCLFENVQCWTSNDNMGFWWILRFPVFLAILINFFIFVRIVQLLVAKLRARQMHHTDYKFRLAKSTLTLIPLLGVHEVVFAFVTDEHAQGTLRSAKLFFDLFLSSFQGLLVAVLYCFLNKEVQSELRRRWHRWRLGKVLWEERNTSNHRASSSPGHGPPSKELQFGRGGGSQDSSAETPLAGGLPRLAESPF
Chain of human GLP1R (P43220 24-463): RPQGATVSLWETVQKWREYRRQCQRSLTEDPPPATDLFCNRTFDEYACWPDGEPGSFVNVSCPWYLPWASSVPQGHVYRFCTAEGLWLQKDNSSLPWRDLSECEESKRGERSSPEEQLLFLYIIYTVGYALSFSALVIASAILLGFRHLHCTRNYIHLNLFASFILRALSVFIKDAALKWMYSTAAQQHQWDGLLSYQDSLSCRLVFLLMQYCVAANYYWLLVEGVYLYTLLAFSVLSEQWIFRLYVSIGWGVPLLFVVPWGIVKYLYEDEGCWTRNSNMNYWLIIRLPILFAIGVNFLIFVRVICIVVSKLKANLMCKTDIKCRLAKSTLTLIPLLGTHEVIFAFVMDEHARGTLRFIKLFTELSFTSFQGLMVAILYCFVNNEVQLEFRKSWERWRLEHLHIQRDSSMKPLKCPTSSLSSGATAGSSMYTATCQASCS

pEC50 (human GLP1R; [1])	pEC50 (human GCGR; Table 5, incretin peptides, cAMP, read-out: hGCGR_EC50)	SMILES	pEC50 (human GCGR)	GCGR/GLP1R ratio (human GCGR)	pEC50 (human GLP1R)
		CC(C)C[C@H](NC(=O)[C@H](Cc1ccc(O)cc1)NC(=O)[C@H](CCCCN)NC(=O)[C@H](CO)NC(=O)[C@H](CCCCN)NC(=O)[C@H](CC(=O)O)NC(=O)[C@H](CO)NC(=O)[C@@H](NC(=O)[C@H](Cc1ccccc1)NC(=O)[C@@H](NC(=O)CNC(=O)[C@H](CCC(N)=O)NC(=O)[C@@H](CO)NC(=O)[C@@H](N)Cc1c[nH]cn1)[C@@H](C)O)[C@@H](C)O)C(=O)N[C@@H](CC(=O)O)C(=O)N[C@@H](CCC(=O)O)C(=O)N[C@@H](CCCNC(=N)N)C(=O)N[C@@H](C)C(=O)N[C@@H](C)C(=O)N[C@@H](CCC(N)=O)C(=O)N[C@@H](CC(=O)O)C(=O)N[C@@H](Cc1ccccc1)C(=O)N[C@H](C(=O)N[C@@H](CCCCN=[N+]=[N-])C(=O)N[C@@H](Cc1c[nH]c2ccccc12)C(=O)N[C@@H](CC(C)C)C(=O)N[C@@H](CC(C)C)C(=O)N[C@@H](CC(=O)O)C(=O)N[C@H](C(N)=O)[C@@H](C)O)C(C)C [PEP69]	9.51	1.9	9.80
9.30		CC(C)C[C@H](NC(=O)[C@H](Cc1ccc(O)cc1)NC(=O)[C@H](CCCCN)NC(=O)[C@H](CO)NC(=O)[C@H](Cc1ccc(O)cc1)NC(=O)[C@H](CC(=O)O)NC(=O)[C@H](CO)NC(=O)[C@@H](NC(=O)[C@H](Cc1ccccc1)NC(=O)[C@@H](NC(=O)CNC(=O)[C@H](CCC(N)=O)NC(=O)C(C)(C)NC(=O)[C@@H](N)Cc1c[nH]cn1)[C@@H](C)O)[C@@H](C)O)C(=O)N[C@@H](CC(=O)O)C(=O)N[C@@H](C)C(=O)N[C@@H](CCCNC(=N)N)C(=O)N[C@@H](C)C(=O)N[C@@H](C)C(=O)N[C@@H](CCCCNC(=O)COCCOCCNC(=O)COCCOCCNC(=O)CC[C@H](NC(=O)CCCCCCCCCCCCCCCCC(=O)O)C(=O)O)C(=O)N[C@@H](CC(=O)O)C(=O)N[C@@H](Cc1ccccc1)C(=O)N[C@H](C(=O)N[C@@H](CCCCN=[N+]=[N-])C(=O)N[C@@H](Cc1c[nH]c2ccccc12)C(=O)N[C@@H](CC(C)C)C(=O)N[C@@H](CCS(C)(=O)=O)C(=O)N[C@@H](CC(=O)O)C(=O)N[C@H](C(N)=O)[C@@H](C)O)C(C)C [PEP30]		4.5	
		CCCCCCCCCCCCCCCC(=O)N[C@@H](CCC(=O)N[C@@H](CCC(=O)NCCCC[C@H](NC(=O)[C@H](CC(=O)O)NC(=O)[C@H](CO)NC(=O)[C@@H](NC(=O)[C@H](Cc1ccccc1)NC(=O)[C@@H](NC(=O)CNC(=O)[C@H](CCC(N)=O)NC(=O)C(C)(C)NC(=O)[C@@H](N)Cc1c[nH]cn1)[C@@H](C)O)[C@@H](C)O)C(=O)N[C@@H](CO)C(=O)N[C@@H](CCCCN)C(=O)N[C@@H](Cc1ccc(O)cc1)C(=O)N[C@@H](CC(C)C)C(=O)N[C@@H](CC(=O)O)C(=O)NC(C)(C)C(=O)N[C@@H](CCCNC(=N)N)C(=O)N[C@@H](C)C(=O)N[C@@H](C)C(=O)N[C@@H](CCC(N)=O)C(=O)N[C@@H](CC(=O)O)C(=O)N[C@@H](Cc1ccccc1)C(=O)N[C@H](C(=O)N[C@@H](CCC(N)=O)C(=O)N[C@@H](Cc1c[nH]c2ccccc12)C(=O)N[C@@H](CC(C)C)C(=O)N[C@@H](CC(C)C)C(=O)N[C@@H](CC(=O)O)C(=O)N[C@H](C(=O)N[C@@H](CCCCN)C(=O)N[C@@H](CCCCN=[N+]=[N-])C(N)=O)[C@@H](C)O)C(C)C)C(=O)O)C(=O)O [PEP19]		1.4	9.47
		CC(C)C[C@H](NC(=O)[C@H](Cc1ccc(O)cc1)NC(=O)[C@H](CCCCN)NC(=O)[C@H](CO)NC(=O)[C@H](Cc1ccc(O)cc1)NC(=O)[C@H](CC(=O)O)NC(=O)[C@H](CO)NC(=O)[C@@H](NC(=O)[C@H](Cc1ccccc1)NC(=O)[C@@H](NC(=O)CNC(=O)[C@H](CCC(N)=O)NC(=O)[C@@H](CO)NC(=O)[C@@H](N)Cc1c[nH]cn1)[C@@H](C)O)[C@@H](C)O)C(=O)N[C@@H](CC(=O)O)C(=O)N[C@@H](CCC(=O)O)C(=O)N[C@@H](CCCNC(=N)N)C(=O)N[C@@H](C)C(=O)N[C@@H](C)C(=O)N[C@@H](CCC(N)=O)C(=O)N[C@@H](CCCCNC(=O)COCCOCCNC(=O)COCCOCCNC(=O)CC[C@H](NC(=O)CCCCCCCCCCCCCCCN=[N+]=[N-])C(=O)O)C(=O)N[C@@H](Cc1ccccc1)C(=O)N[C@H](C(=O)N[C@@H](CCC(N)=O)C(=O)N[C@@H](Cc1c[nH]c2ccccc12)C(=O)N[C@@H](CC(C)C)C(=O)N[C@@H](CC(C)C)C(=O)N[C@@H](CC(=O)O)C(=O)N[C@H](C(N)=O)[C@@H](C)O)C(C)C [PEP27]	9.41	6.5	10.22
10.40	8.41	CSCC[C@H](NC(=O)[C@H](CC(C)C)NC(=O)[C@H](Cc1c[nH]c2ccccc12)NC(=O)[C@H](CCC(N)=O)NC(=O)[C@@H](NC(=O)[C@H](Cc1ccccc1)NC(=O)[C@H](CC(=O)O)NC(=O)[C@H](CCC(N)=O)NC(=O)[C@H](C)NC(=O)[C@H](C)NC(=O)[C@H](CCCNC(=N)N)NC(=O)C(C)(C)NC(=O)[C@H](CC(=O)O)NC(=O)[C@H](CC(C)C)NC(=O)[C@H](Cc1ccc(O)cc1)NC(=O)[C@H](CCCCN)NC(=O)[C@H](CO)NC(=O)[C@H](CCCCN)NC(=O)[C@H](CC(=O)O)NC(=O)[C@H](CO)NC(=O)[C@@H](NC(=O)[C@H](Cc1ccccc1)NC(=O)[C@@H](NC(=O)CNC(=O)[C@H](CCC(N)=O)NC(=O)C(C)(C)NC(=O)[C@@H](N)Cc1c[nH]cn1)[C@@H](C)O)[C@@H](C)O)C(C)C)C(=O)N[C@@H](CC(N)=O)C(=O)N[C@H](C(=O)N[C@@H](CCCCN)C(=O)N[C@@H](CCC(N)=O)C(=O)N[C@@H](CCCCN=[N+]=[N-])C(N)=O)[C@@H](C)O [PEP72]		97.5	
		CC(C)C[C@H](NC(=O)[C@H](Cc1c[nH]c2ccccc12)NC(=O)[C@H](CCC(N)=O)NC(=O)[C@@H](NC(=O)[C@H](Cc1ccccc1)NC(=O)[C@H](CC(=O)O)NC(=O)[C@H](CCC(N)=O)NC(=O)[C@H](C)NC(=O)[C@H](C)NC(=O)[C@H](CCCNC(=N)N)NC(=O)C(C)(C)NC(=O)[C@H](CC(=O)O)NC(=O)[C@H](CC(C)C)NC(=O)[C@H](Cc1ccc(O)cc1)NC(=O)[C@H](CCCCN)NC(=O)[C@H](CO)NC(=O)[C@H](Cc1ccc(O)cc1)NC(=O)[C@H](CC(=O)O)NC(=O)[C@H](CO)NC(=O)[C@@H](NC(=O)[C@H](Cc1ccccc1)NC(=O)[C@@H](NC(=O)CNC(=O)[C@H](CCC(N)=O)NC(=O)C(C)(C)NC(=O)[C@@H](N)Cc1c[nH]cn1)[C@@H](C)O)[C@@H](C)O)C(C)C)C(=O)N[C@@H](CC(C)C)C(=O)N[C@@H](CC(=O)O)C(=O)N[C@H](C(=O)N[C@@H](CCCCN)C(=O)N[C@@H](CCCCNC(=O)COCCOCCNC(=O)COCCOCCNC(=O)CC[C@H](NC(=O)CCCCCCCCCCCCCCCN=[N+]=[N-])C(=O)O)C(N)=O)[C@@H](C)O [PEP28]	9.77	1.1	9.80
